Data on two compounds can be found in publication PMC3280239, “Virtual Screening, Identification and In Vitro Testing of Novel Inhibitors of O-Acetyl-L-Serine Sulfhydrylase of Entamoeba histolytica” (PLoS ONE, 2012).

In assay [1] the target is T1, O-acetyl-L-serine sulfhydrylase (EhOASS) (Entamoeba histolytica, UniProt O15570). Briefly: PLP fluorescence titration (ex […] nm, em […] nm); also […] inhibition of purified enzyme at […]. It is filed as binding.
In assay [2] the target is T1, O-acetyl-L-serine sulfhydrylase (EhOASS). The description is as above. The format is binding. The source holds these as a separate data set.

pKd: −log10 of the molar value. Where two headings read alike, the source gives them in different places.

T1 sequence (O15570 entry or part of it): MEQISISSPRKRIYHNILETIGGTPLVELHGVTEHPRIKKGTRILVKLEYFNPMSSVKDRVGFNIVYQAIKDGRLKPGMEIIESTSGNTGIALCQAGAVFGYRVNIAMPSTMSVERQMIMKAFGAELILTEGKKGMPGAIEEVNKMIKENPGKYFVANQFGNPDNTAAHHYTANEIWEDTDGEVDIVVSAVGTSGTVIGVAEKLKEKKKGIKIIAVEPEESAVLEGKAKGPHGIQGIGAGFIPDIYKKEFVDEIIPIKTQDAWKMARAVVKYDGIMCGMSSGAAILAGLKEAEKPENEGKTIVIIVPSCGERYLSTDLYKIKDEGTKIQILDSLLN

With `COc1ccc(C2C(C(C)=O)=C(O)C(=O)N2CCC(=O)O)cc1` (centres unmarked) [ZINC03984585, 3-[3-acetyl-4-hydroxy-2-(4-methoxyphenyl)-5-oxo-2,5-dihydro-1H-pyrrol-1-yl]propanoic acid], the pKd (as a rule, −log10 of the Kd, conventionally taken in molar units) in assay [1] was 6.74.
In assay [2], `O=C(CSc1nc(O)cc(=O)[nH]1)c1c[nH]c2ccccc12` [ZINC08931589, 4-hydroxy-2-[2-(1H-indol-3-yl)-2-oxoethyl]sulfanyl-1H-pyrimidin-6-one] had a negative-log Kd (pKd) of around 5.09.
